We go through one compound from patent publication US8227468B2, “Cathepsin S inhibitor compounds” (Eli Lilly and Company, priority 2010, dated 2012).

The subject of one assay is p10 in PWBC. In words: p10 Accumulation Assay. In kind it is in vivo, mouse. As to conditions: 4 hr.; for In vivo relative p10 accumulation in PWBC: mice, relative to vehicle, normalized with tubulin, mean ± SD. As to the method:
After 4 hr., whole blood (300-500 μL) is drawn from each mouse. The step of removing red blood cells is performed by adding one mL Flow Cytometry Lysing Solution™ (Santa Cruz Biotechnology, Inc.), keeping at room temperature for 10 min., centrifuging at 4000 rpm for 5 min. and then discarding the supernatant. This step is repeated once to remove the red blood cells completely. The PWBC pellet is resuspended with 50 μL CytoBuster™ Reagent (Novagen) and sonicated at high power for 5-10 sec.
The p10 amount is determined using a Western blot. […] Gels are run at 120 V for 60 min. with the NUPAGE® MES SDS running buffer (Invitrogen). Proteins are transferred to 0.2 μm nitrocellulose (BIO-RAD) at 100 V for 30 min. with NUPAGE® Transfer Buffer (Invitrogen) and 20% methanol (EMD). Blot is briefly rinsed with PBS and blocked in 10 mL in ODYSSEY® Blocking Buffer (LI-COR Biosciences) at room temperature for 60 min. For p10, the blot is incubated with primary antibody against mouse CD74 (1 μg/ml of rat anti-CD74 antibody)(BD Bioscience) in blocking buffer at 4° C. overnight. For tubulin control, the blot is incubated with rabbit anti-beta tubulin pAb (0.2 μg/ml)(Abcam) in blocking buffer at 4° C. overnight. The blot is washed with washing buffer (DPBS from HyClone) with 0.01% polysorbate 20 four times for 10 min. each. The blot is then incubated with secondary antibody at room temperature for 60 min. For p10, ALEXA FLUOR® 680 goat anti rat IgG (1:5000 dilution)(Invitrogen) is used. For tubulin, ALEXA FLUOR® 680 goat anti rabbit IgG (1:5000 dilution)(Invitrogen). The blot is again washed as described above and placed in PBS for scanning.
The images are captured by scanning on an ODYSSEY® Infrared Imager (LI-COR Biosciences). The p10 amount is analyzed with ODYSSEY® software and normalized with the tubulin amount. The data are statistically analyzed with JMP® 7 software (Cary, N.C.). Values are represented as means±standard deviation.

Another assay deals with human cathepsin B (Homo sapiens, UniProt P07858). The assay is described as follows: human cathepsin B enzyme inhibitor (selectivity) assay. The assay is classed as biochemical. As to the method: (§1) Potency assays for human cathepsin S and mouse cathepsin S and selectivity assays for human cathepsins L, B, K, V, and F are described below. The experimental conditions and/or materials of each assay differ slightly and therefore such differences are noted either directly within the general assay conditions or coded according to the respective enzyme assay using designations 1a through 1 g in Table 1 immediately following the general assay conditions.
(§2) Test compounds are prepared in DMSO to make up a 10 mM stock solution. The stock solution is serially diluted in DMSO to obtain a ten-point dilution curve with a final compound concentration range 1a in a 96-well round-bottom plate before conducting the in vitro enzymatic assay.
(§3) Amount 1c of substrate, benzyloxycarbonyl-L-leucyl-L-arginine-4-methyl-coumaryl-7-amide (Peptide Institute), prepared in assay buffer, is added to each well of the plate for a final concentration 1d. Amount 1e of the respective enzyme, described immediately hereafter, prepared in assay buffer is added to each well of the plate containing substrate and test compound resulting in a final concentration 1f to initiate the reaction. • Human cathepsins S, L, K, and V: Obtained from Calbiochem. • Mouse cathepsin S: Briefly, mouse cathepsin S is cloned in baculovirus using a mCathepsin S-pAN51(T760) construct containing a histidine tag. […]

For another assay, the target named is T1, human cathepsin L (Homo sapiens, UniProt P07711).
T1 construct: purchased Calbiochem
T1 sequence (P07711 114-333): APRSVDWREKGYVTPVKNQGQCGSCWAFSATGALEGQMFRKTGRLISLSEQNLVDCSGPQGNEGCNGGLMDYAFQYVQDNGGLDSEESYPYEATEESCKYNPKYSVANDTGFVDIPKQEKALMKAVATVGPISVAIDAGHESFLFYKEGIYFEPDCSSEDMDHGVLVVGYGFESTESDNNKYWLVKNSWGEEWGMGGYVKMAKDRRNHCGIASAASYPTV
In words: human cathepsin L enzyme inhibitor (selectivity) assay. The assay is classed as biochemical. As to the method: as §1, §2, §3

A further assay deals with T2, mouse cathepsin S (Mus musculus, UniProt O70370).
T2 construct: histidine tag; made in house
In words: mouse cathepsin S enzyme inhibitor assay. In kind it is biochemical. As to the method: as §1, §2, §3

The target of another assay is T3, human cathepsin K (Homo sapiens, UniProt P43235).
T3 construct: purchased Calbiochem
T3 sequence (P43235 115-329): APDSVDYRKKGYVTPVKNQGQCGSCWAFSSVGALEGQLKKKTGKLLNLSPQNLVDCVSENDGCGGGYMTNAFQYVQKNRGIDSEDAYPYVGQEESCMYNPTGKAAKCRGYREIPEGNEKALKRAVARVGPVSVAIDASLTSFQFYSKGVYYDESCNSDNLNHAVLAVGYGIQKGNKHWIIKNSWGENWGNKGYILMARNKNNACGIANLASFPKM
In words: human cathepsin K enzyme inhibitor (selectivity) assay. In kind it is biochemical. As to the method:
as §1, §2, §3

Assay [1] deals with CaCl2-induced AAA (aortic luminal perimeter). In words: CaCl2-induced AAA Animal Efficacy Model. As to conditions: for In Vivo Percentage (%) Reduction of AAA: 129SvEv mice, aortic luminal perimeter by ultrasound, mean ± SD. The assay is classed as in vivo, mouse. As to the method:
The first dose is given one day prior to surgery (p.m.) and the second dose is given the morning of surgery. […] B.i.d. dosing (a.m. and p.m.) is continued the day after surgery for 28 days. On the day of surgery, animals received analgesia ([…]®, 0.1 mg/kg) subcutaneously 10 min. pre-operatively and 3 hr. post-operatively. Mice are anesthetized by inhalation of 2% isoflurane and a laparotomy is performed. The abdominal aorta is exposed by retracting the bowel laterally with a surgical retractor and leaving the bowel in the abdominal cavity. […] Once isolated, the region of interest of the abdominal aorta is wrapped with a premeasured sterile cotton gauze soaked in 0.25 M aqueous CaCl2 solution. In sham control animals, 0.9% saline is substituted for CaCl2. After 7 min., the gauze is removed and a second CaCl2 soaked gauze (or 0.9% saline soaked gauze in sham animals) is applied. Following a second 7 minute period, the gauze is removed, the aorta is rinsed with 0.9% saline and the abdomen is closed. […] After 4 weeks of dosing as described above, the aortic luminal perimeter, area and diameter of the aortic segments that were wrapped with gauze are determined by ultrasound (Biosound Ultrasound-7.5 MHz) and statistically analyzed with JMP® 7 software (Cary, N.C.).

The target in the next assay is T4, human cathepsin V (Homo sapiens, UniProt O60911).
T4 construct: purchased Calbiochem
T4 sequence (O60911 114-334): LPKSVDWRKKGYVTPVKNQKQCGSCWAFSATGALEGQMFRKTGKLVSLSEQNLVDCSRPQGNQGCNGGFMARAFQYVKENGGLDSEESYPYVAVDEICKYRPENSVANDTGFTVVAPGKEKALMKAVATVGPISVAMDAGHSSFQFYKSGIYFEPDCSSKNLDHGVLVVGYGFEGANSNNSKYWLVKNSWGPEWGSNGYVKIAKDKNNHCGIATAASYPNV
In words: human cathepsin V enzyme inhibitor (selectivity) assay. In kind it is biochemical. As to the method: as §1, §2, §3

A further assay deals with T5, human cathepsin S (Homo sapiens, UniProt P25774).
T5 construct: purchased Calbiochem
T5 sequence (P25774 115-331): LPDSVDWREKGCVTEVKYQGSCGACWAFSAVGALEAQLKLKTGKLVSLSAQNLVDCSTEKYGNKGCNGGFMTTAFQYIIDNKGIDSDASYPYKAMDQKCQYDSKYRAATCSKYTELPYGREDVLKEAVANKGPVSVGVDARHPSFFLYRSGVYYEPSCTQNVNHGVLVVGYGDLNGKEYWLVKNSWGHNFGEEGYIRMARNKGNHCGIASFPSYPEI
The assay is described as follows: human cathepsin S enzyme inhibitor assay. In kind it is biochemical. As to the method:
as §1, §2, §3

The IC50 is the concentration that gives 50% inhibition. A high value points to a need for much substance. For `CNC(=O)O[C@H]1CCc2ccc(N3CCN(C4COC4)CC3)cc2[C@@H]1NC(=O)c1ccc(F)cc1` [Example 2, [(1S,2S)-1-[(4-Fluorobenzoyl)amino]-7-[4-(oxetan-3-yl)piperazin-1-yl]tetralin-2-yl] N-methylcarbamate], the “In vivo relative p10 accumulation in PWBC” value with p10 in PWBC (3 mg/kg oral gavage) was 1.1 ± 0.7 fold increase; with p10 in PWBC (10 mg/kg oral gavage), 2.2 ± 1.3 fold increase; in the assay with p10 in PWBC (30 mg/kg oral gavage), 4.6 ± 1.2 fold increase. Moreover, the “effect on p10 in PWBC (in words)” value with p10 in PWBC (3-30 mg/kg oral) was “dose dependently increase p10 in PWBC”. Moreover, the IC50 at human cathepsin B is around 94 µM; against human cathepsin L, above 167 µM; against mouse cathepsin S, around 0.0039 µM; against human cathepsin K, above 100 µM; on human cathepsin V, above 100 µM; against human cathepsin S, around 0.0102 µM. Besides, the “In Vivo Percentage (%) Reduction of AAA” value in assay [1] (1 mg/kg oral gavage b.i.d. 4 weeks) was found to be 11 ± 7%; in assay [1] (3 mg/kg oral gavage b.i.d. 4 weeks), 32 ± 9%; in assay [1] (10 mg/kg oral gavage b.i.d. 4 weeks) it was 43 ± 9%; in assay [1] (30 mg/kg oral gavage b.i.d. 4 weeks), 52 ± 7%. Moreover, the “effect on aortic luminal perimeter (in words)” value in assay [1] (1-30 mg/kg oral b.i.d. 4 weeks) is “reduce the aortic luminal perimeter in a dose-dependent manner”.
